We go through 1 compound from ChEMBL document CHEMBL4411276, “Chemistry-oriented synthesis (ChOS) and target deconvolution on neuroprotective effect of a novel scaffold, oxaza spiroquinone” (Eur J Med Chem, 2019).

Data set [1] has as its target Mitogen-activated protein kinase 10 (Homo sapiens) (UniProt P53779). The experiment in a line: Inhibition of human JNK3 assessed as enzyme activity at 30 uM using ATF2 as substrate by [gamma-33P]-ATP assay relative to control. Also on record: scale not given: the % may be the effect or the level left.
Data set [2] in a line: Cytotoxicity against LPS-stimulated mouse BV2 cells assessed as cell survival after 24 hrs by MTT assay relative to control. The note with it: read-out: Survival. Format: cell-based, BV-2. Also on record: concentration or dose not given beside the values. (Tetrazolium dyes change colour on reduction, which living cells bring about.)
Data set [3] relates to Mus musculus. In words: Effect on total entries in ICR mouse model of scopolamine-induced memory impairment at 5 mg/kg by Y-maze test. Format: ADME, organism-based. The following applies: in vivo.
Data set [4] addresses Death-associated protein kinase 1 (Homo sapiens) (UniProt P53355). In words: Inhibition of human DAPK1 assessed as enzyme activity at 30 uM using KKLNRTLSFAEPG as substrate by [gamma-33P]-ATP assay relative to control. Also on record: scale not given: the % may be the effect or the level left.
The target of data set [5] is CDK2/Cyclin O (Homo sapiens) (UniProt P24941+P22674). The experiment in a line: Inhibition of human CDK2/cyclin-O assessed as enzyme activity at 30 uM using histone H1 as substrate by [gamma-33P]-ATP assay relative to control. More on the design: scale not given: the % may be the effect or the level left. Format: protein-complex assay.
In data set [6] the target is T1, Serine/threonine-protein kinase tousled-like 1 (Homo sapiens) (UniProt Q9UKI8).
T1 sequence (whole entry): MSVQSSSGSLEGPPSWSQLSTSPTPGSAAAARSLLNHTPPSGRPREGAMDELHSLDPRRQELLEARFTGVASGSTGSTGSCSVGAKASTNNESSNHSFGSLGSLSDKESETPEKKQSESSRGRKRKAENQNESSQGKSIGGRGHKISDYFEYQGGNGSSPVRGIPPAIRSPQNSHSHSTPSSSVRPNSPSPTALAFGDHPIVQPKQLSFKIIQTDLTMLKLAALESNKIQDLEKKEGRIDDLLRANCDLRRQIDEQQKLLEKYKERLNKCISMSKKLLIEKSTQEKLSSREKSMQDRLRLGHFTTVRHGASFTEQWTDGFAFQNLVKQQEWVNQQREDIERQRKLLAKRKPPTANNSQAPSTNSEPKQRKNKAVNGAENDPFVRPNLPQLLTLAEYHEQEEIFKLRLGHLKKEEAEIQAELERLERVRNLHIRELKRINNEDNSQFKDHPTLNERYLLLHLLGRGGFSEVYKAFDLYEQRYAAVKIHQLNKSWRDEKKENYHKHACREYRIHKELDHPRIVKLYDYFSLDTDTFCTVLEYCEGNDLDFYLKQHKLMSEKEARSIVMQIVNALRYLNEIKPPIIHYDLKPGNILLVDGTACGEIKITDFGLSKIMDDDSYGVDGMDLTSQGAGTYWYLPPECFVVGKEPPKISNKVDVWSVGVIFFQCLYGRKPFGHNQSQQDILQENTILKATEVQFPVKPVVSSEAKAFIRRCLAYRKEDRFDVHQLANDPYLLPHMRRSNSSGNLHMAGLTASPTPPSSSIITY
The experiment in a line: Inhibition of human TLK1 assessed as enzyme activity at 30 uM using Histone H3 as substrate by [gamma-33P]-ATP assay relative to control. More on the design: scale not given: the % may be the effect or the level left.

The nature of data set [7]: Cytotoxicity against mouse BV2 cells assessed as cell survival after 24 hrs by MTT assay relative to control. Format: cell-based, BV-2. More on the design: concentration or dose not given beside the values. The note with it: read-out: Survival.
Data set [8] concerns the target Protein kinase C beta type (Homo sapiens) (UniProt P05771). In words: Inhibition of human PKCb2 assessed as enzyme activity at 30 uM using Histone H1 as substrate by [gamma-33P]-ATP assay relative to control. More on the design: scale not given: the % may be the effect or the level left.
Data set [9] deals with Mitogen-activated protein kinase 8 (Homo sapiens) (UniProt P45983). In words: Inhibition of human JNK1 assessed as enzyme activity at 30 uM using ATF2 as substrate by [gamma-33P]-ATP assay relative to control. More on the design: scale not given: the % may be the effect or the level left.
Data set [10] deals with Serine/threonine-protein kinase N2 (Homo sapiens) (UniProt Q16513). The experiment in a line: Inhibition of human PKN2 assessed as enzyme activity at 30 uM using KKLNRTLSVA as substrate by [gamma-33P]-ATP assay relative to control. More on the design: scale not given: the % may be the effect or the level left.
Data set [11] concerns the target Serine/threonine-protein kinase 25 (Homo sapiens) (UniProt O00506). In words: Inhibition of human STK25 assessed as enzyme activity at 30 uM using MBP as substrate by [gamma-33P]-ATP assay relative to control. Also on record: scale not given: the % may be the effect or the level left.
The target in data set [12] is T2, NUAK family SNF1-like kinase 1 (Homo sapiens) (UniProt O60285).
T2 sequence (whole entry): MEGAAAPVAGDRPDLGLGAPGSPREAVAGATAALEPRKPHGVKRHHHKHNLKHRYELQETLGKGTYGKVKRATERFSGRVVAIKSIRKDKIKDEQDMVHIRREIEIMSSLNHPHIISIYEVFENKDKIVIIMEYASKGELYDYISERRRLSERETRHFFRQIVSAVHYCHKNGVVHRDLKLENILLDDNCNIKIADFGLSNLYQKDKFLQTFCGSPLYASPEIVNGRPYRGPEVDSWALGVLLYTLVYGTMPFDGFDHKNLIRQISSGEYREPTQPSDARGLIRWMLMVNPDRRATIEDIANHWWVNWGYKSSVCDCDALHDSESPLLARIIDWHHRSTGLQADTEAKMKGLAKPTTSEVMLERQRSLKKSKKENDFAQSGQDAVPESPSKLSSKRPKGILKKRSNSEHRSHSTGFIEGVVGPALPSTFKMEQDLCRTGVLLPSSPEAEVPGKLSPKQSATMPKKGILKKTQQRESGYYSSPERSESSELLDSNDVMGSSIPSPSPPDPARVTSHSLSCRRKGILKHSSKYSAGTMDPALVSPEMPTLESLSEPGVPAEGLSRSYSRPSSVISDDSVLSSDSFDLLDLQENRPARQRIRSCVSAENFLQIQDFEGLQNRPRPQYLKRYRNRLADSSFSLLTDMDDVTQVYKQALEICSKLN
In words: Inhibition of human ARK5 assessed as enzyme activity at 30 uM using KKKVSRSGLYRSPSMPENLNRPR as substrate by [gamma-33P]-ATP assay relative to control. More on the design: scale not given: the % may be the effect or the level left.

Data set [13] relates to BV-2. In words: Anti-inflammatory activity in mouse BV2 cells assessed as reduction in LPS-induced NO production pre-treated before LPS stimulation for 24 hrs by Griess reagent-based assay. The data set is classed as functional, cell-based. (Nitrite, measured by Griess reagent, commonly stands in for NO production.)

Protein kinase C beta type (Homo sapiens), sequence (P05771 2-671 limits assumed): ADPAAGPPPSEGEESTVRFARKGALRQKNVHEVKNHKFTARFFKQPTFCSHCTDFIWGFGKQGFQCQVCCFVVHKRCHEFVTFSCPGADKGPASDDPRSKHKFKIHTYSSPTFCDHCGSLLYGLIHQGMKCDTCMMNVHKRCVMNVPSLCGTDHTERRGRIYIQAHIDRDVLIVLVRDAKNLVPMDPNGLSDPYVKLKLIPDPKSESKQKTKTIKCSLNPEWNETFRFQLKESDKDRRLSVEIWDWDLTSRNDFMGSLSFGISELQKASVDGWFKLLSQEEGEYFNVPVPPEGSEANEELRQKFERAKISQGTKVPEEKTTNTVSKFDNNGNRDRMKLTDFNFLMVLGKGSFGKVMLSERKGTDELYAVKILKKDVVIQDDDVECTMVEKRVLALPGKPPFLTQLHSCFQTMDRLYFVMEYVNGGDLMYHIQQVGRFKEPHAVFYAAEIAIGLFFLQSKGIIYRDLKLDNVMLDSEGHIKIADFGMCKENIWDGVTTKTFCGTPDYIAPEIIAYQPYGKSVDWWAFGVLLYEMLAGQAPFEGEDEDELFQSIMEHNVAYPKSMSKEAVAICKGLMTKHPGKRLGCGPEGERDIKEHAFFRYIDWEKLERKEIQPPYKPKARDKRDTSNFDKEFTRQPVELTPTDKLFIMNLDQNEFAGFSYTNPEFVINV
Death-associated protein kinase 1 (Homo sapiens), sequence (P53355 whole entry, looked up): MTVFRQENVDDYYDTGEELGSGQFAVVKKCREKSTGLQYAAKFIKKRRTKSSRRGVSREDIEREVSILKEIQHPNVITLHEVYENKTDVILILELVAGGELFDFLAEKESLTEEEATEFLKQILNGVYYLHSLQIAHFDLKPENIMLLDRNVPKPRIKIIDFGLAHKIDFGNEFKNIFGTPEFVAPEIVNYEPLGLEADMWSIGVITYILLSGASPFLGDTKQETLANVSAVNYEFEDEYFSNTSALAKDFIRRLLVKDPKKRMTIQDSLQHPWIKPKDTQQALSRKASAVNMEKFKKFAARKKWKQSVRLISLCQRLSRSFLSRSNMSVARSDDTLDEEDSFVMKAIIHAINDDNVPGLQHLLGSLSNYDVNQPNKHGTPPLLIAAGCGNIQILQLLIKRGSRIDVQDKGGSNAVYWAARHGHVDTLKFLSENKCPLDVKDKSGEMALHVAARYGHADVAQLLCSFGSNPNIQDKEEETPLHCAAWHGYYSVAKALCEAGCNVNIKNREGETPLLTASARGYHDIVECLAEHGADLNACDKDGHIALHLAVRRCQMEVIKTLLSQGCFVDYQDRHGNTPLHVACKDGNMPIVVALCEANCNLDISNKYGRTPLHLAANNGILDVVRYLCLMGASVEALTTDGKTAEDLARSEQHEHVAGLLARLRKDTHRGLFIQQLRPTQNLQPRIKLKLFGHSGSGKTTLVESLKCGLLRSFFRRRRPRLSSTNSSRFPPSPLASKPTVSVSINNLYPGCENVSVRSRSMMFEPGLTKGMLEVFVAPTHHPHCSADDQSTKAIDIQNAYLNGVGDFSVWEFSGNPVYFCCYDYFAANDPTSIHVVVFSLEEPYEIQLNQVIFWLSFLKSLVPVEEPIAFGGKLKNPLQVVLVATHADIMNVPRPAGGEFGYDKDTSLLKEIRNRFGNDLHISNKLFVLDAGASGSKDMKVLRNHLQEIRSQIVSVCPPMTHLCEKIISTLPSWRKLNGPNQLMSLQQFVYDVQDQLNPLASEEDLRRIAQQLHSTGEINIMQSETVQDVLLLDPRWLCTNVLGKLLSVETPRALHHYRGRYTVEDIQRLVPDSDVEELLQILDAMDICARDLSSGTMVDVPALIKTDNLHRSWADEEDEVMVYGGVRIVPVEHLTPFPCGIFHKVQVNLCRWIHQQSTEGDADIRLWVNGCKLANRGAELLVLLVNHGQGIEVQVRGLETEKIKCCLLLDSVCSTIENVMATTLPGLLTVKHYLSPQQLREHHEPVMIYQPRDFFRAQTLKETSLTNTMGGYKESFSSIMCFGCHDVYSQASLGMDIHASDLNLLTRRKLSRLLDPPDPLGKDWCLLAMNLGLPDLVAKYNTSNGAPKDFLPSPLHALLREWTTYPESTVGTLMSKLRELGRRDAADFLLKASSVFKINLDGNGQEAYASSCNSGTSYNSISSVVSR
Mitogen-activated protein kinase 10 (Homo sapiens), sequence (P53779 whole entry): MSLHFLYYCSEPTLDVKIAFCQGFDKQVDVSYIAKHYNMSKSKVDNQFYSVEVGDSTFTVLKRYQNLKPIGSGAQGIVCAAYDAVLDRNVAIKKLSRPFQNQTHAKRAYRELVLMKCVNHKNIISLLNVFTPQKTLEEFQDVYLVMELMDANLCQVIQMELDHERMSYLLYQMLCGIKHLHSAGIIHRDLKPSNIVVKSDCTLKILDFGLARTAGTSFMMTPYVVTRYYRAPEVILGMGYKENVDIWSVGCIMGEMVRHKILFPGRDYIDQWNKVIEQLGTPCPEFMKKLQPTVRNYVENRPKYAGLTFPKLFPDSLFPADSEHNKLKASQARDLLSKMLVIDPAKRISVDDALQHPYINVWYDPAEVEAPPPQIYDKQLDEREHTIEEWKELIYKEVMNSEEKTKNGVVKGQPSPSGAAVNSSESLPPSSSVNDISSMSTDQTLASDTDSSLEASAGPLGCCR
Mitogen-activated protein kinase 8 (Homo sapiens), sequence (P45983 whole entry): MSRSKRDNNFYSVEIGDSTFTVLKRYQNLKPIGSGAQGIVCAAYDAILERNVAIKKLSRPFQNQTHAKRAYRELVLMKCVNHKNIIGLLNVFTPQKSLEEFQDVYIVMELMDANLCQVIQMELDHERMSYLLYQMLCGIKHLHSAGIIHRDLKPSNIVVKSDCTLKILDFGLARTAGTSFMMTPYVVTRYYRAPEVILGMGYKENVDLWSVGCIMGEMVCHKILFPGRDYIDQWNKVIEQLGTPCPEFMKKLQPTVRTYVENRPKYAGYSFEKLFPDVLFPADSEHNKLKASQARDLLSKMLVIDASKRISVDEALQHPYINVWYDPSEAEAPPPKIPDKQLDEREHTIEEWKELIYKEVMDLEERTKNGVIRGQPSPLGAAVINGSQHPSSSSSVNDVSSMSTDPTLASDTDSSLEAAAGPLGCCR
Serine/threonine-protein kinase N2 (Homo sapiens), sequence (Q16513 whole entry, looked up): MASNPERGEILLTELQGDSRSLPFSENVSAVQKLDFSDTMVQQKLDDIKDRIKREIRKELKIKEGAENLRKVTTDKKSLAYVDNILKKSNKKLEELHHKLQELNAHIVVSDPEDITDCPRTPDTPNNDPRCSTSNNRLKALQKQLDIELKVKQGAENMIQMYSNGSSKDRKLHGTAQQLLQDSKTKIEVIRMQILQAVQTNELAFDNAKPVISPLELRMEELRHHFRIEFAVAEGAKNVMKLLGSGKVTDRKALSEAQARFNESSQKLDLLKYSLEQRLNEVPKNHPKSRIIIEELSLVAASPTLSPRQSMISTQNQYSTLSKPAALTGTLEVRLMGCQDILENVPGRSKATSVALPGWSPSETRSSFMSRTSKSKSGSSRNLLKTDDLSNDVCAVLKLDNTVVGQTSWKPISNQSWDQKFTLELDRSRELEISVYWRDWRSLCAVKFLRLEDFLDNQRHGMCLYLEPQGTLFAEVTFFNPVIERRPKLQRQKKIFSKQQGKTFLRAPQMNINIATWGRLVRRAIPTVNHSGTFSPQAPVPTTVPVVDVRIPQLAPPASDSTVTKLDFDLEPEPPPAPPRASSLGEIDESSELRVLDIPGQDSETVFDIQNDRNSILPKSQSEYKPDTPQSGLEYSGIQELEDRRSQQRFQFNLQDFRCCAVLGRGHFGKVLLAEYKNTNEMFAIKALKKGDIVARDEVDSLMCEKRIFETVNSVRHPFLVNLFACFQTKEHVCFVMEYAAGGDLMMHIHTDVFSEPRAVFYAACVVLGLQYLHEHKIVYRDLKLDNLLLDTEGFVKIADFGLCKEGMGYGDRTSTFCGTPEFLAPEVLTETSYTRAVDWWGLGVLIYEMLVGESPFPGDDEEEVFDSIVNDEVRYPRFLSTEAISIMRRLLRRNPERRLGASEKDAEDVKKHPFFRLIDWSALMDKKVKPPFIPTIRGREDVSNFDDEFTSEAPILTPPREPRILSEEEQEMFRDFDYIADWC
Serine/threonine-protein kinase 25 (Homo sapiens), sequence (O00506 whole entry, looked up): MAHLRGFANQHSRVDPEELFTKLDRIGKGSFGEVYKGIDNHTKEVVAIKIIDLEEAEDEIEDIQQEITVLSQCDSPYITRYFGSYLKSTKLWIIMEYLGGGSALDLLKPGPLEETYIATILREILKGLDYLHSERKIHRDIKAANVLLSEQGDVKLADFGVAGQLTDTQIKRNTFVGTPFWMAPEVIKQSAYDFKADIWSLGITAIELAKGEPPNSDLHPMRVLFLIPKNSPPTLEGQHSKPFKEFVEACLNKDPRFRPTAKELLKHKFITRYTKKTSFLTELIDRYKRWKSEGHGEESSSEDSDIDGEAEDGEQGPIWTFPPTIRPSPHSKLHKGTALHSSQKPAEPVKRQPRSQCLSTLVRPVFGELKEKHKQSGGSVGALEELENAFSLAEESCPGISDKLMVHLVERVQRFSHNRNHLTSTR

`O=C1C=CC2(C=C1)OCC(Cc1cc(C(F)(F)F)cc(C(F)(F)F)c1)C(=O)N2c1ccccc1` (stereo not drawn): the Activity in data set [1] was 70.6 to 73.4%; in data set [3] it was “Non-Toxic”; in [4] it was 45.3 to 45.4%; in data set [5], 42.3 to 43.8%; in [6], 57.3 to 58.6%; in [8], 67.7 to 71.2%. The Activity fell in the range of 35.6 to 36% in data set [9], 62.2 to 64.8% in data set [10], 66.9 to 67% in data set [11] and 70.7 to 70.8% in [12]. The values for the viability at 24 h in [2] and in data set [7] were 92.1% and 85.4%, respectively. Moreover, the concentration for half-maximal inhibition (IC50) in data set [13] was 70 nM.

The term IC50 denotes the concentration needed to halve the response being measured.
